In patent publication US7176219B2, “Salts of quinuclidine derivative” (priority 2005, dated 2007):
Like-named read-outs stand apart in the source and are kept apart here.

Legend:
muscarinic M3 receptors = biological target: T1, muscarinic M3 receptors (Cavia porcellus, UniProt H0W1Z3); assay: Functional affinity estimate for muscarinic M3 receptors in bladders (carbachol-induced intracellular Ca2+ change in bladder smooth muscle cells); type: cell-based, guinea pig; details: for IC50: inhibition of carbachol-induced Ca2+ increase, guinea pig bladder smooth muscle cells, Fura2; for Ki: IC50 converted by Cheng-Prusoff equation based on EC50 of carbachol
T1 construct: Smooth muscle cells were isolated from guinea pig bladders; from tissue; host or cells: smooth muscle cells freshly isolated from guinea pig bladder
T1 sequence (H0W1Z3 1-590): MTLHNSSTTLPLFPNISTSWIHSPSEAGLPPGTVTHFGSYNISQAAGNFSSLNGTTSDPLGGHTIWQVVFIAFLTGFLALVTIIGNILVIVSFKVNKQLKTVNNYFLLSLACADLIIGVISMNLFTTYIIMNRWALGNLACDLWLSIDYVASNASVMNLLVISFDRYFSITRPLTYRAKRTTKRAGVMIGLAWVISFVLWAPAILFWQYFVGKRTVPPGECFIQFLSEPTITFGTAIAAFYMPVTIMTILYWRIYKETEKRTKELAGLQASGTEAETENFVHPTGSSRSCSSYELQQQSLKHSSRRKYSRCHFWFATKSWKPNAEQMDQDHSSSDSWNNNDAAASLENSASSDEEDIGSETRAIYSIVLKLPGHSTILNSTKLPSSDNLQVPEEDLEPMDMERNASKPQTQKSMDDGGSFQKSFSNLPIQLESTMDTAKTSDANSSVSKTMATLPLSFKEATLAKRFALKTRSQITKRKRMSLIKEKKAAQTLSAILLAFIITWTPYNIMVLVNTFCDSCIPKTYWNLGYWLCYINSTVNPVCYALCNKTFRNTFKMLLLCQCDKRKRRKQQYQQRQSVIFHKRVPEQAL
Description: Below, the method is described in brief.
Smooth muscle cells were isolated from guinea pig bladders from which the […] had been removed, loaded with a calcium-sensitive fluorescent dye Fura2 and suspended in phenol red-free Hanks' buffer solution supplemented with 20 mM HEPES (pH 7.4) and 0.1% bovine serum albumin. An aliquot of cell suspension (490 μL) was continuously stirred, kept at 28° C. and monitored for the ratio of fluorescence (500 nm) at 340 nm excitation to that at 380 nm excitation. To each aliquot, 5 μL of test compound and carbachol solutions were serially added with a 2 minute interval, and the peak increase in the ratio over the level just before stimulation was used in data analysis.

[1] = Evaluation of hygroscopicity (dynamic steam adsorption, weight change); type: physicochemical; details: 25° C., within the range 5–95% relative humidity
Description: A sample (about 5 mg) was placed in a purpose-made quartz holder, and the sample weight at the respective humidity was continuously measured and recorded in the following conditions. The apparatus including data processing was operated according to the method and procedure directed in each device. (Apparatus: dynamic steam adsorption measuring apparatus DVS Advantage, made by SMS)

[2] = Evaluation of stability (1): forced degradation test, impurities by LC; details: for Change from Impurity Amt. before Storage (%), Condition 3 / Change from Impurity Amt. before Storage (%), Condition 2: 25° C., 5 days; for Change from Impurity Amt. before Storage (%), Condition 3: NUV (near ultraviolet ray) irradiated; for Change from Impurity Amt. before Storage (%), Condition 3 / Change from Impurity Amt. before Storage (%), Condition 1: tightly closed; for Change from Impurity Amt. before Storage (%), Condition 2: relative humidity 93%, open; for Change from Impurity Amt. before Storage (%), Condition 1: 120° C., 24 hours
Description: A sample after storage was dissolved in 1 mL of MeOH and used as a sample solution. The sample solution was diluted 100 times with MeOH and used as a standard solution. Impurities contained in the sample solution was quantitatively analyzed using the standard solution. In this determination, the apparatus including data processing was operated according to the method and procedure directed in each device. (Apparatus: LC-MSD 1100 series, made by Agilent)

[3] = system: carbachol-evoked bladder contraction; assay: Inhibitory effects on carbachol-evoked bladder contraction in anesthetized mice; type: in vivo; details: anesthetized female mice, i.v., carbachol 10 μg/kg, intravesical pressure
Description: The method for determination of inhibitory effects of test compounds on bladder contraction is described as follows.
Female mice, weighing 30 to 35 g, were anesthetized with a sub-lethal dose (75 mg/kg, i.v.) of sodium pentobarbital and placed supine on a heating pad to maintain the body temperature. A polyethylene catheter (PE10) was cannulated to the bladder via the urethra and secured by purse-string suture at the external urethral opening. Another catheter was inserted into the femoral vein for injections of drug solutions at a […]. The bladder catheter was connected to a pressure transducer through a three-way stopcock valve. The bladder was emptied by drainage of urine through the catheter, and then distended with about 100 μL of physiological saline, and the intravesical pressure was measured.
After intravesical pressure stabilization, the muscarinic agonist carbachol (10 μg/kg) was administered repeatedly with an interval of 15 minutes or longer. By this means, bladder contractions occurred in a reproducible manner over 2 hours without deterioration of physical conditions. After three responses to carbachol were obtained, a test compound injection was followed by carbachol administration 10 minutes later and this procedure was repeated with increasing doses of the test compound. In four or five mice per test compound, the percent inhibition of means of prior drug responses was obtained and the dose of test compound required for 50% inhibition (ID50) was estimated by the linear regression analysis. Mice showing rhythmic bladder constriction were not used for the data analysis.

Molecule	IC50 (muscarinic M3 receptors; IC50 (ng/mL))	Ki (muscarinic M3 receptors; Ki (nM))	Weight Change (%) [1]	Change from Impurity Amt. before Storage (%), Condition 3 [2]	Change from Impurity Amt. before Storage (%), Condition 2 [2]	Change from Impurity Amt. before Storage (%), Condition 1 [2]	Impurities before Storage (%) [2]	ID50 (dose required for 50% inhibition of bladder contraction) [3]	Change from Impurity Amt. before Storage (%), Condition 3 ([2]; benzenesulfonate)	Change from Impurity Amt. before Storage (%), Condition 2 ([2]; benzenesulfonate)	Change from Impurity Amt. before Storage (%), Condition 1 ([2]; benzenesulfonate)	Impurities before Storage (%) ([2]; benzenesulfonate)	Ki (muscarinic M3 receptors; read-out: Ki)	IC50 (muscarinic M3 receptors)	Increase of impurities under heat ([2]; Condition 1 of Test Example 2 (stability test to heat))
O=C(O[C@H]1CN2CCC1CC2)N1CCc2ccccc2[C@H]1c1ccccc1 [Example 2, (−)-(3R)-quinuclidin-3-yl(1R)-1-phenyl-1,2,3,4-tetrahydroisoquinoline-2-carboxylate (+)-(2S,3S)-di-O-benzoyltartrate]	8.83 nM	0.62 ± 0.16 nM	<1%	0.0%	0.1%	0.2%	0.0%								
O=C(O[C@H]1CN2CCC1CC2)N1CCc2ccccc2[C@H]1c1ccccc1 [Example 3, (−)-(3R)-quinuclidin-3-yl(1R)-1-phenyl-1,2,3,4-tetrahydroisoquinoline-2-carboxylate (+)-(2S,3S)-di-O-(4-methylbenzoyl)tartrate]	10.5 nM	0.69 ± 0.19 nM	<1%	0.0%	0.1%	2.3%	0.0%								
O=C(O[C@H]1CN2CCC1CC2)N1CCc2ccccc2[C@H]1c1ccccc1.O=S(=O)(O)c1ccccc1 [Example 5, (−)-(3R)-quinuclidin-3-yl(1R)-1-phenyl-1,2,3,4-tetrahydroisoquinoline-2-carboxylate benzenesulfonate]	3.46 nM	0.47 ± 0.12 nM	<1%					0.059 mg/kg	−0.1%	0.1%	0.3%	1.6%			
O=C(O[C@H]1CN2CCC1CC2)N1CCc2ccccc2[C@H]1c1ccccc1.O=S(=O)(O)c1ccccc1 [Example 5-1, (−)-(3R)-quinuclidin-3-yl(1R)-1-phenyl-1,2,3,4-tetrahydroisoquinoline-2-carboxylate benzenesulfonate]			<1%						−0.2%	0.0%	−0.1%	1.8%			
Br.O=C(O[C@H]1CN2CCC1CC2)N1CCc2ccccc2[C@H]1c1ccccc1 [Example 7, (−)-(3R)-quinuclidin-3-yl(1R)-1-phenyl-1,2,3,4-tetrahydroisoquinoline-2-carboxylate hydrobromide]	4.06 nM	0.66 ± 0.28 nM	<4%	0.3%	0.2%	−0.2%	0.5%	0.050 mg/kg							
Cc1ccc(S(=O)(=O)O)cc1.O=C(O[C@H]1CN2CCC1CC2)N1CCc2ccccc2[C@H]1c1ccccc1 [Example 11, (−)-(3R)-quinuclidin-3-yl(1R)-1-phenyl-1,2,3,4-tetrahydroisoquinoline-2-carboxylate p-toluenesulfonate]	4.11 nM	0.52 ± 0.13 nM	<6%	0.0%	0.1%	−0.1%	0.5%								
CCS(=O)(=O)O.O=C(O[C@H]1CN2CCC1CC2)N1CCc2ccccc2[C@H]1c1ccccc1 [Example 12, (−)-(3R)-quinuclidin-3-yl(1R)-1-phenyl-1,2,3,4-tetrahydroisoquinoline-2-carboxylate ethanesulfonate]	4.02 nM	0.54 ± 0.055 nM	<5%	−0.1%	−0.1%	−0.2%	1.4%								
CS(=O)(=O)O.O=C(O[C@H]1CN2CCC1CC2)N1CCc2ccccc2[C@H]1c1ccccc1 [Example 13, (−)-(3R)-quinuclidin-3-yl(1R)-1-phenyl-1,2,3,4-tetrahydroisoquinoline-2-carboxylate methanesulfonate]			<25%												
(−)-(3R)-quinuclidin-3-yl(1R)-1-phenyl-1,2,3,4-tetrahydroisoquinoline-2-carboxylate (+)-camphor-10-sulfonate [Example 10]			<2%	0.0%	0.0%	0.0%	0.9%						0.65 ± 0.12 nM	2.6 ± 0.42 ng/mL	
(−)-(3R)-quinuclidin-3-yl(1R)-1-phenyl-1,2,3,4-tetrahydroisoquinoline-2-carboxylate (−)-L-phenylalaninate [Example 4]			<2%	−0.3%	−0.3%	50.8%	1.9%	0.090 mg/kg					0.66 ± 0.046 nM	2.5 ± 0.044 ng/mL	increase of impurities
(−)-(3R)-quinuclidin-3-yl(1R)-1-phenyl-1,2,3,4-tetrahydroisoquinoline-2-carboxylate methyl phosphate [Example 14]			<11%												
(−)-(3R)-quinuclidin-3-yl(1R)-1-phenyl-1,2,3,4-tetrahydroisoquinoline-2-carboxylate naphthalene-2-sulfonate [Example 8]			<4%	2.6%	0.2%	1.3%	2.0%	0.057 mg/kg					0.55 ± 0.12 nM	2.3 ± 0.87 ng/mL	
(−)-(3R)-quinuclidin-3-yl(1R)-1-phenyl-1,2,3,4-tetrahydroisoquinoline-2-carboxylate sebacate [Example 9]			<1%	−0.8%	0.2%	−0.3%	3.7%						0.56 ± 0.048 nM	2.2 ± 0.33 ng/mL	
